Assay results from ChEMBL document CHEMBL1926553, “Synthesis and antitumor activity of conjugates of 5-Fluorouracil and emodin” (Eur J Med Chem, 2012).

Legend:
[1] = Cytotoxicity against human HO8910 cells after 2 days by alamar blue assay; format: functional, cell-based; conditions: HO-8910, 48 h
SGC-7901 [2] = assay: Cytotoxicity against human SGC7901 cells after 2 days by alamar blue assay; format: functional, cell-based; conditions: SGC-7901, 48 h
HepG2 = assay: Cytotoxicity against human HepG2 cells after 2 days by alamar blue assay; format: functional, cell-based; conditions: HepG2, 48 h
HEK293 = assay: Cytotoxicity against human HEK293 cells after 2 days by alamar blue assay; format: cell-based; conditions: HEK293, 48 h
SGC-7901 [3] = assay: Ratio of emodin IC50 to compound IC50 for human SGC7901 cells after 2 days by alamar blue assay; format: functional
[4] = Ratio of compound IC50 to 5-Fluorouracil IC50 for human HEK293 cells after 2 days by alamar blue assay; format: ADME, cell-based; conditions: read-out: Ratio IC50
[5] = Ratio of compound IC50 to emodin IC50 for human HEK293 cells after 2 days by alamar blue assay; format: ADME, cell-based; conditions: read-out: Ratio IC50

Row | Compound | IC50 [1] [µM] | IC50 (SGC-7901 [2]) [µM] | IC50 (HepG2) [µM] | IC50 (HEK293; read-out: IC50) [µM] | Ratio IC50 (SGC-7901 [3]) | selectivity ratio at 48 h [4] | selectivity ratio at 48 h [5] | IC50 (HEK293) [µM]
1 | COc1cc(OC)c2c(c1)C(=O)c1cc(C)c(Cn3cc(F)c(=O)[nH]c3=O)c(OC)c1C2=O | > 100 | > 100 | > 100 | > 100 |  |  |  | 
2 | COc1cc(OC)c2c(c1)C(=O)c1cc(C)c(Cn3cc(F)c(=O)n(C)c3=O)c(OC)c1C2=O | > 100 | > 100 | > 100 |  |  |  |  | 
3 | CCn1c(=O)c(F)cn(Cc2c(C)cc3c(c2OC)C(=O)c2c(OC)cc(OC)cc2C3=O)c1=O | > 100 | > 100 | > 100 |  |  |  |  | 
4 | CCCCn1c(=O)c(F)cn(Cc2c(C)cc3c(c2OC)C(=O)c2c(OC)cc(OC)cc2C3=O)c1=O | > 100 | > 100 | > 100 |  |  |  |  | 
5 | C/C=C/Cn1c(=O)c(F)cn(Cc2c(C)cc3c(c2OC)C(=O)c2c(OC)cc(OC)cc2C3=O)c1=O | > 100 | > 100 | > 100 |  |  |  |  | 
6 | COc1cc(OC)c2c(c1)C(=O)c1cc(C)c(Cn3cc(F)c(=O)n(CC=C(C)C)c3=O)c(OC)c1C2=O | > 100 | > 100 | > 100 |  |  |  |  | 
7 | COc1cc(OC)c2c(c1)C(=O)c1cc(C)c(Cn3cc(F)c(=O)n(Cc4ccccc4)c3=O)c(OC)c1C2=O | 45.1 | 39.5 | > 100 | > 100 | 1.5 |  |  | 
8 | COc1cc(OC)c2c(c1)C(=O)c1cc(C)c(Cn3cc(F)c(=O)n(CCc4ccccc4)c3=O)c(OC)c1C2=O | 11.6 | > 100 | 68.6 | 4.6 |  |  |  | 
9 | COc1cc(OC)c2c(c1)C(=O)c1cc(C)c(Cn3cc(F)c(=O)n(Cc4ccc5c(c4)OCO5)c3=O)c(OC)c1C2=O | > 100 | > 100 | 91 | 30 |  |  |  | 
10 | COc1cc(OC)c2c(c1)C(=O)c1cc(C)c(Cn3cc(F)c(=O)n(Cc4ccccc4F)c3=O)c(OC)c1C2=O | 91.1 | 61 | > 100 | 66.6 |  | 1.5 |  | 
11 | COc1cc(OC)c2c(c1)C(=O)c1cc(C)c(Cn3cc(F)c(=O)n(Cc4cccc(F)c4)c3=O)c(OC)c1C2=O | > 100 | > 100 | > 100 | > 100 |  |  |  | 
12 | COc1cc(OC)c2c(c1)C(=O)c1cc(C)c(Cn3cc(F)c(=O)n(Cc4ccccc4C#N)c3=O)c(OC)c1C2=O | 22.6 | 21.4 | 39.9 | 29.6 | 3 |  | 23 | 
13 | Cc1cc(O)c2c(c1)C(=O)c1cc(O)cc(O)c1C2=O [EMODIN] | 16 | 61.3 | 13.1 | 1.3 |  |  |  | 
14 | O=c1[nH]cc(F)c(=O)[nH]1 [FLUOROURACIL] | 85.5 | 76 | 76.7 |  |  |  |  | 42.9
